Measurements from PMC6917776, “Discovery of a chemical probe for PRDM9” (Nature Communications, 2019).
Several values for one entry are separate records, joined by “and”; a condition that tells them apart may be missing. Equal values may be shown once.

Columns and labels:
[1] = target: PRDM9 (Homo sapiens, UniProt Q9NQV7); assay: PRDM9 cellular assay: H3K4me3 of exogenous H3-GFP in HEK293T cells (western blot); type: cell-based; conditions: for IC50: H3-GFP and PRDM9-FLAG co-transfected, 20 h of treatment, read-out: IC50, PRDM9-dependent trimethylation of ectopic H3K4
Procedure: HEK293T cells were co-transfected with H3-GFP and PRDM9-FLAG and treated with compounds at indicated concentrations for 20 h. Mut denotes PRDM9 catalytic mutant (Y357S). […] Cells were treated with compounds for 1 day. Cell number was measured using IncuCyte™ ZOOM live cell imaging device. The results are mean ± sd, n = 3. Source data are provided as a Source Data file.
HEK293T (kind gift from Sam Benchimol, York University), or MCF7 (ATCC® HTB-22™), cells were plated (12 well plates) and next day co-transfected with 0.1 (HEK293T) or 0.2 (MCF7) µg of GFP-tagged histone H3 and with 0.1 (HEK293T) or 0.2 (MCF7) µg of Flag-tagged PRDM9/PRDM9 catalytic mutant (Y357S) and 0.8 or 0.6 µg of empty vector using JetPRIME® transfection reagent, following manufacturer instructions. After 4 h media was removed and cells were treated with compounds for 20 h. Next day, cells were lysed in lysis buffer (20 mM Tris-HCl pH 8, 150 mM NaCl, 1 mM EDTA, 10 mM MgCl2, 0.5% TritonX-100, 12.5 U mL^−1 benzonase (Sigma), complete EDTA-free protease inhibitor cocktail (Roche)). After 2 min incubation at RT, SDS was added to final 1% concentration. Cell lysates were analyzed in western blot for GFP and H3K4me3 levels. All cell lines were mycoplasma negative, as determined by MycoAlert™ Mycoplasma Detection Kit (Lonza).
Total cell lysates were resolved in 4–12% Bis-Tris Protein Gels (Invitrogen) and transferred in for 1.5 h (80 V) onto PVDF membrane (Millipore) in Tris-Glycine transfer buffer containing 20% MeOH and 0.05% SDS. Blots were blocked for 1 h in blocking buffer (5% milk in PBS) and incubated with primary antibodies anti-GFP (1:3000, Clontech # 632381), anti-H3K4me3 (1:1000, Millipore, #04-745), anti-histone H3 (1:2000, #ab10799, Abcam), anti-Flag (1:5000, #F4799, Sigma) in blocking buffer (5% BSA in 0.1% Tween 20 PBS) overnight at 4 °C. After five washes with 0.1% Tween 20 PBS the blots were incubated with goat-anti rabbit (IR800) and donkey anti-mouse (IR 680) antibodies (1:5000) in Odyssey Blocking Buffer (LiCor) for 1 h at RT and washed five times with 0.1% Tween 20 PBS. The signal was read on an Odyssey scanner (LiCor) at 800 nm and 700 nm and analyzed with Image Studio Ver.5.2 software.

[2] = system: HEK293T cells; assay: Cell growth, IncuCyte ZOOM cell number; type: cell-based; conditions: for HEK293T cell growth (in words): 24 h of treatment; for Cell# - toxocity data, % Control: HEK293T-1day, Figure 6c, technical replicates
[3] = HEK-293T, 20 h, Figure 6b, replicates, read-out: H3K4me3/GFP - western blot, % control

Sequence of PRDM9 (Q9NQV7 whole entry): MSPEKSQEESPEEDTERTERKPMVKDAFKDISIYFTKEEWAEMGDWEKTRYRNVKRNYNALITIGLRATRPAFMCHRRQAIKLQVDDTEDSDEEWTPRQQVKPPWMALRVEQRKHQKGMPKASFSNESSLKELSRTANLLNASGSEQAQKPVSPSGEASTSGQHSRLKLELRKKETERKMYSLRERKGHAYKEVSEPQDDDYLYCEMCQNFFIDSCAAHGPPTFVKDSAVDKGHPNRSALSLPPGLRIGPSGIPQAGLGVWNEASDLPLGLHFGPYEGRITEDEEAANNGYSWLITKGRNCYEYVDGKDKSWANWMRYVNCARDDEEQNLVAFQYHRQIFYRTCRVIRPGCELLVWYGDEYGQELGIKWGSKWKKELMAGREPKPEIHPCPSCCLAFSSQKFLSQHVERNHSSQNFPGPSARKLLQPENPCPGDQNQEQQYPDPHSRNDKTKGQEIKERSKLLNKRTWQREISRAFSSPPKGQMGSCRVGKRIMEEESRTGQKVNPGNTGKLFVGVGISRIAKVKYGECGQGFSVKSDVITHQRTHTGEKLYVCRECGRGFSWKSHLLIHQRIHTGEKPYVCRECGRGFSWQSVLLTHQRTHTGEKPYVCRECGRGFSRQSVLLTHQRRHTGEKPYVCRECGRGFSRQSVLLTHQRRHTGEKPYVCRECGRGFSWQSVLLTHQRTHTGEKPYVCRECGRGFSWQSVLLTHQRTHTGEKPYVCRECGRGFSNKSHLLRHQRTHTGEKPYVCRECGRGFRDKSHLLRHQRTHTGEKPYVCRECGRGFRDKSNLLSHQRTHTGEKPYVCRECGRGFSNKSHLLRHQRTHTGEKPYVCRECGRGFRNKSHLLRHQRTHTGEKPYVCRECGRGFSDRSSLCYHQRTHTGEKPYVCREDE

## COc1cc(OC)cc(-c2noc(N3CCN(C)C4(CCN(c5ccccc5)CC4)C3)n2)c1 [MRK-740-NC]
[1]
  IC50: > 10000 nM
[1]; HEK-293T, 20 h, 0.256 µM, Figure 6b, replicates, read-out: H3K4me3/GFP - western blot, % control
  remaining activity at 0.256 µM: 100%
[1]; HEK-293T, 20 h, 0.64 µM, Figure 6b, replicates, read-out: H3K4me3/GFP - western blot, % control
  remaining activity at 0.64 µM: 89.9%
[1]; HEK-293T, 20 h, 1.6 µM, Figure 6b, replicates, read-out: H3K4me3/GFP - western blot, % control
  remaining activity at 1.6 µM: 103%
[1]; [3]
  remaining activity at 3.33334 µM: 113%
[1]; HEK-293T, 20 h, 4 µM, Figure 6b, replicates, read-out: H3K4me3/GFP - western blot, % control
  remaining activity at 4 µM: 111%
[1]; HEK-293T, 20 h, 10 µM, Figure 6b, replicates, read-out: H3K4me3/GFP - western blot, % control
  remaining activity at 10 µM: 116%
[2]; 3 µM
  HEK293T cell growth (in words): neither compound affected HEK293T cell growth
  Cell# - toxocity data, % Control: 125.539 % Control and 114.582 % Control and 84.3363 % Control
[2]; 1 µM
  Cell# - toxocity data, % Control: 113.12 % Control and 118.767 % Control and 86.3705 % Control
[2]; 5 µM
  Cell# - toxocity data, % Control: 86.195 % Control and 121.075 % Control and 87.3323 % Control
[2]; 10 µM
  Cell# - toxocity data, % Control: 76.5766 % Control and 74.1915 % Control and 52.2642 % Control

## COc1cc(OC)cc(-c2noc(N3CCN(C)C4(CCN(c5ccnc(C)c5)CC4)C3)n2)c1 [MRK-740]
[1]
  IC50: 800 ± 100 nM
[1]; HEK-293T, 20 h, 0.123455 µM, Figure 6b, replicates, read-out: H3K4me3/GFP - western blot, % control
  remaining activity at 0.123455 µM: 109%
[1]; HEK-293T, 20 h, 0.370374 µM, Figure 6b, replicates, read-out: H3K4me3/GFP - western blot, % control
  remaining activity at 0.370374 µM: 89.7%
[1]; HEK-293T, 20 h, 1.11111 µM, Figure 6b, replicates, read-out: H3K4me3/GFP - western blot, % control
  remaining activity at 1.11111 µM: 25.7%
[1]; [3]
  remaining activity at 3.33334 µM: 11.4%
[1]; HEK-293T, 20 h, 30 µM, Figure 6b, replicates, read-out: H3K4me3/GFP - western blot, % control
  remaining activity at 30 µM: 3.21%
[1]; HEK-293T, read-out: IC90, PRDM9-dependent H3K4 trimethylation in cells
  IC90: 3000 nM
[2]; 3 µM
  HEK293T cell growth (in words): neither compound affected HEK293T cell growth
  Cell# - toxocity data, % Control: 81.2039 % Control and 117.832 % Control and 120.808 % Control
[2]; 1 µM
  Cell# - toxocity data, % Control: 89.1325 % Control and 119.658 % Control and 130.764 % Control
[2]; 5 µM
  Cell# - toxocity data, % Control: 86.208 % Control and 117.65 % Control and 129.14 % Control
[2]; 10 µM
  Cell# - toxocity data, % Control: 89.6654 % Control and 116.798 % Control and 107.394 % Control
